Results published in patent US20090131437A1, “DISUBSTITUTED UREAS AS KINASE INHIBITORS” (CORIUM INTERNATIONAL, INC., priority 2005, published 2009).

Row | melting point [°C] | Compound
1 | 141 to 142 | CC(C)(C)c1cc(NC(=O)Nc2ccc(Oc3cc(N)ncn3)cc2F)n(-c2ccc(F)cc2)n1 [Example 14, 1-[4-(6-Amino-pyrimidin-4-yloxy)-2-fluoro-phenyl]-3-[5-tert-butyl-2-(4-fluoro-phenyl]-2H-pyrazol-3-yl]-urea]
2 | 146 to 147 | CNc1cc(Oc2ccc(NC(=O)Nc3cc(C(C)(C)C)nn3-c3cccc(C(=O)N4CCN(C)CC4)c3)cc2)ncn1 [Example 15, 1-{5-tert-Butyl-2-[3-(4-methyl-piperazine-1-carbonyl)-phenyl]-2H-pyrazol-3-yl}-3-[4-(6-methylamino-pyrimidin-4-yloxy)-phenyl]-urea]
